Test results taken from patent EP0785195A1, “Piperidine or tetrahydropyridine derivatives having affinity for the serotonin 5-HTIA receptor” (AMERICAN HOME FOOD PRODUCTS, INC., priority 1996, dated 1997).
pIC50: −log10 of the molar value.

Target: T1, 5-HT1A serotonin receptor (Rattus norvegicus, UniProt P19327)
T1 construct: from tissue; host or cells: rat brain membranes (inferred from the cited Hall et al. procedure)
T1 sequence (P19327 1-422): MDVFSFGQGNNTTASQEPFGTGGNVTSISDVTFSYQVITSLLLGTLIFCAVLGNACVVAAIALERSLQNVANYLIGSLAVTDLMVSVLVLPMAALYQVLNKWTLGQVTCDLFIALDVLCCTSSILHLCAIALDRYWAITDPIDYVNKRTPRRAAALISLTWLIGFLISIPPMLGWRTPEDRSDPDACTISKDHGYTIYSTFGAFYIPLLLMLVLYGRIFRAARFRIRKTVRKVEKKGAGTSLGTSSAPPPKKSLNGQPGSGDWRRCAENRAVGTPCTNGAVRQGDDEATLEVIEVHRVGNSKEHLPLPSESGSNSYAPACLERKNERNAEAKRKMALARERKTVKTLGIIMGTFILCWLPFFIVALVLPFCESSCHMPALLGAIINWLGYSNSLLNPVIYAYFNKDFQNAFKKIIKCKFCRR
Assay: displacement of [3H] 8-OHDPAT from the 5-HT1A serotonin receptor (procedure of Hall et al.)
Assay type: binding
From the text: 8-OHDPAT (dipropylaminotetralin) from the 5-HT1A serotonin receptor following the procedure of Hall et al., J. Neurochem. 44, 1685 (1985).

Row | SMILES | pIC50
1 | C[C@H](CN1CC=C(c2cccc3[nH]ccc23)CC1)Nc1ccccn1 [Example 1, {(R)-2-[4-(1H-Indol-4-yl)-(1,2,3,6-tetrahydro-pyridin-1-yl)]-1-methyl-ethyl}-(pyridin-2-yl)-amine] | 7.94
2 | C[C@H](CN1CC=C(c2cccc3[nH]ccc23)CC1)N(C(=O)C1CCCCC1)c1ccccn1 [Example 2] | 8.77
